# According to ChEMBL document CHEMBL3102795, “Discovery of 1-oxa-4,9-diazaspiro[5.5]undecane-based trisubstituted urea derivatives as highly potent soluble epoxide hydrolase inhibitors and orally active drug candidates for treating of chronic kidney diseases” (Bioorg Med Chem Lett, 2014):
# Calls of active or inactive are those of the source. The calls are words filed in the database; no cut-off is given here.
# Key:
# Rattus norvegicus = assay: Reduction of serum creatinine level in rat anti-glomerular basement membrane glomerulonephritis model at 30 mg/kg, po qd administered for 3 weeks; assay type: functional, organism-based; parameters: dose 30 mg/kg
# Liver microsome = assay: Metabolic stability in human liver microsomes measured per mg of protein; assay type: ADME
# [1] = target: T1, Bifunctional epoxide hydrolase 2 (Rattus norvegicus, UniProt P80299); assay: Inhibition of rat recombinant sEH expressed in baculovirus infected insect Sf9 cells using cyano(6-methoxynaphthalen-2-yl)methyl trans-[(3-phenyloxiran-2-yl)methyl] carbonate as substrate preincubated for 30 mins followed by substrate addition measured after 20 to 45 mins by fluorescence assay
# T1 sequence (P80299 whole entry): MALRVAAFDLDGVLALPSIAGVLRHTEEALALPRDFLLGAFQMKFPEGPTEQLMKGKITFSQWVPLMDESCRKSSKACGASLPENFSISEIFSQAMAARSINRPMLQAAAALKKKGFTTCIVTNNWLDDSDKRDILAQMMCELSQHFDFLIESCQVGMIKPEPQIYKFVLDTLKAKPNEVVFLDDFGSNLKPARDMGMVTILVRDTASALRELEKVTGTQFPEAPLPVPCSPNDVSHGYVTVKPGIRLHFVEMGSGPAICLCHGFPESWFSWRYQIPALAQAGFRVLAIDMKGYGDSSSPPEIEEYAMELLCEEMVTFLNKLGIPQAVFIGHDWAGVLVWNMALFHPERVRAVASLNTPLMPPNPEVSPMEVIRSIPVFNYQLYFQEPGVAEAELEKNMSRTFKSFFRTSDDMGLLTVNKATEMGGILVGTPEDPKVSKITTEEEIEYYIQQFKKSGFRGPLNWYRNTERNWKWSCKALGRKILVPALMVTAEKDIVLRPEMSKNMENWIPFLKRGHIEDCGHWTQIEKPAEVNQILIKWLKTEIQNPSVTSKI
# [2] = Solubility of the compound in simulated intestinal fluid compliant with Japanese pharmacopeia; assay type: ADME
# [3] = Solubility of the compound in simulated gastric fluid compliant with Japanese pharmacopeia; assay type: ADME
# [4] = AUC (0 to infinity) in rat at 1 mg/kg, po; assay type: ADME, organism-based; parameters: time infinity, dose 1 mg/kg, route oral; details: plasma
# [5] = Tmax in rat at 1 mg/kg, po; assay type: ADME, organism-based; parameters: dose 1 mg/kg, route oral; details: in vivo
# [6] = target: T2, Bifunctional epoxide hydrolase 2 (Homo sapiens, UniProt P34913); assay: Inhibition of human recombinant sEH expressed in baculovirus infected insect Sf9 cells using cyano(6-methoxynaphthalen-2-yl)methyl trans-[(3-phenyloxiran-2-yl)methyl] carbonate as substrate preincubated for 30 mins followed by substrate addition measured after 20 to 45 mins by fluorescence assay
# T2 sequence (P34913 whole entry): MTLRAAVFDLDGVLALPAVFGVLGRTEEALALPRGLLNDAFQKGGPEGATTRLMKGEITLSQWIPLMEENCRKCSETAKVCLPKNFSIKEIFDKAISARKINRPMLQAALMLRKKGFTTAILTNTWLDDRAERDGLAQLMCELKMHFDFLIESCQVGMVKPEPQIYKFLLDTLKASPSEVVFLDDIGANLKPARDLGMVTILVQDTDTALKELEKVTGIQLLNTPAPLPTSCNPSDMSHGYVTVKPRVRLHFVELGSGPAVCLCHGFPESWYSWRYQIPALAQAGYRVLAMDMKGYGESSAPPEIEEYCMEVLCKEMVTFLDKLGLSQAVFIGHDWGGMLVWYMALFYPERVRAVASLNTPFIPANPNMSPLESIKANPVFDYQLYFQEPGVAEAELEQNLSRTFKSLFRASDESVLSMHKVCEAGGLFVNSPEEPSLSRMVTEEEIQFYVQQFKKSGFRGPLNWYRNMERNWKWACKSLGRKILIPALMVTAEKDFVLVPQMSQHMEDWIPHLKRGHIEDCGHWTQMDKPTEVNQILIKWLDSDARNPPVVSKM
# [7] = AUC (0 to infinity) in rat at 0.2 mg/kg, iv; assay type: ADME, organism-based; parameters: time infinity, dose 0.2 mg/kg, route intravenous; details: plasma
# [8] = Drug uptake in rat at 0.2 mg/kg, iv at 5 mins; assay type: ADME, organism-based; parameters: dose 0.2 mg/kg, route intravenous; details: in vivo, read-out: Drug uptake
# [9] = Total clearance in rat at 0.2 mg/kg, iv; assay type: ADME, organism-based; parameters: dose 0.2 mg/kg, route intravenous; details: in vivo
# [10] = Half life in rat at 0.2 mg/kg, iv; assay type: ADME, organism-based; parameters: dose 0.2 mg/kg, route intravenous; details: in vivo
# [11] = Oral bioavailability in rat at 1 mg/kg; assay type: ADME, organism-based; details: in vivo
# [12] = Cmax in rat at 1 mg/kg, po; assay type: ADME, organism-based; parameters: dose 1 mg/kg, route oral; details: in vivo
# [13] = Volume of distribution at steady state in rat at 0.2 mg/kg, iv; assay type: ADME, organism-based; parameters: dose 0.2 mg/kg, route intravenous; details: in vivo, read-out: Vdss
CLint (Liver microsome) [µL/min/mg],IC50 [1] [nM],solubility [2] [µg/mL],solubility [3] [µg/mL],AUC(0-inf) [4] [ng·h/mL],Tmax [5] [h],IC50 [6] [nM],AUC(0-inf) [7] [ng·h/mL],concentration at 5 min [8] [ng/mL],clearance [9] [mL/min/kg],half-life [10] [h],bioavailability [11] [%],Cmax [12] [ng/mL],Vd [13] [L/kg],SMILES,Activity (Rattus norvegicus)
30,9.3,62,71,306,1,1.1,173,71,19.3,2.63,35.4,20.4,3.56,O=C(Nc1ccc(OC(F)(F)F)cc1)N1CCOC2(CCN(C(=O)c3ccccc3F)CC2)C1,Active
74,31.4,79,79,–,–,2.1,–,–,–,–,–,–,–,O=C(CC1CC1)N1CCC2(CC1)CN(C(=O)Nc1ccc(C(F)(F)F)cc1)CCO2,–
461,71.6,59,66,–,–,0.5,–,–,–,–,–,–,–,COc1ccccc1CC(=O)N1CCC2(CC1)CN(C(=O)Nc1ccc(OC(F)(F)F)cc1)CCO2,–
21,24.9,23,29,–,–,1,–,–,–,–,–,–,–,O=C(Nc1ccc(C(F)(F)F)cc1)N1CCOC2(CCN(C(=O)c3ccc(Cl)cc3)CC2)C1,–
62,11.6,89,90,–,–,0.6,–,–,–,–,–,–,–,O=C(Nc1ccc(OC(F)(F)F)cc1)N1CCOC2(CCN(C(=O)c3cc(Cl)ccn3)CC2)C1,–
48,13,12,10,–,–,1.4,–,–,–,–,–,–,–,O=C(Nc1ccc(C(F)(F)F)cc1)N1CCOC2(CCN(C(=O)c3ccccc3Cl)CC2)C1,–
3,15,82,85,–,–,1.9,–,–,–,–,–,–,–,N#Cc1ccc(C(=O)N2CCC3(CC2)CN(C(=O)Nc2ccc(C(F)(F)F)cc2)CCO3)cc1,–
86,18.5,39,44,–,–,0.7,–,–,–,–,–,–,–,O=C(Nc1ccc(OC(F)(F)F)cc1)N1CCOC2(CCN(C(=O)c3c(F)cccc3F)CC2)C1,–
93,19.1,38,43,–,–,1.3,–,–,–,–,–,–,–,O=C(Nc1ccc(C(F)(F)F)cc1)N1CCOC2(CCN(C(=O)c3c(F)cccc3F)CC2)C1,–
357,14.5,63,69,–,–,0.6,–,–,–,–,–,–,–,O=C(Nc1ccc(OC(F)(F)F)cc1)N1CCOC2(CCN(C(=O)C3CCCCC3)CC2)C1,–
35,96.9,92,93,–,–,1.1,–,–,–,–,–,–,–,O=C(Nc1ccc(OC(F)(F)F)cc1)N1CCOC2(CCN(C(=O)c3c[nH]nc3C3CC3)CC2)C1,–
98,12,73,76,–,–,2.9,–,–,–,–,–,–,–,CC(C)(C)C(=O)N1CCC2(CC1)CN(C(=O)Nc1ccc(C(F)(F)F)cc1)CCO2,–
29,> 20,93,96,–,–,1.8,–,–,–,–,–,–,–,O=C1Cc2cc(C(=O)N3CCC4(CC3)CN(C(=O)Nc3ccc(OC(F)(F)F)cc3)CCO4)ccc2N1,–
100,36.9,21,26,–,–,1.2,–,–,–,–,–,–,–,O=C(Nc1ccc(C(F)(F)F)cc1)N1CCOC2(CCN(C(=O)c3cccc(Cl)c3)CC2)C1,–
228,28,33,37,–,–,0.4,–,–,–,–,–,–,–,O=C(Nc1ccc(OC(F)(F)F)cc1)N1CCOC2(CCN(C(=O)C3(c4ccccc4)CC3)CC2)C1,–
12,8.8,92,91,61.3,1,0.9,111,134,30.1,1.53,11.1,8.64,1.82,Cc1cnc(C(=O)N2CCC3(CC2)CN(C(=O)Nc2ccc(OC(F)(F)F)cc2)CCO3)cn1,–
–,–,63,62,–,–,3.2,–,–,–,–,–,–,–,O=C(Nc1ccc(C(F)(F)F)cc1)N1CCOC2(CCN(C(=O)c3ccccc3)CC2)C1,–
47,25.7,83,84,123,2,1.4,90.2,77.7,36.9,1.17,24.1,9.58,3.31,Cc1cc(C(=O)N2CCC3(CC2)CN(C(=O)Nc2ccc(OC(F)(F)F)cc2)CCO3)no1,–
–,–,83,85,–,–,4.2,–,–,–,–,–,–,–,O=C(Nc1ccc(C(F)(F)F)cc1)N1CCOC2(CCN(C(=O)c3ccccn3)CC2)C1,–
–,–,46,52,–,–,5.4,–,–,–,–,–,–,–,O=C(Nc1ccc(OC(F)(F)F)cc1)N1CCC2(CC1)CN(C(=O)c1c(F)cccc1F)CCO2,–
39,6.8,93,92,–,–,0.8,–,–,–,–,–,–,–,CC(=O)Nc1ccccc1C(=O)N1CCC2(CC1)CN(C(=O)Nc1ccc(C(F)(F)F)cc1)CCO2,–
–,–,–,–,–,–,2.96,–,–,–,–,–,–,–,O=C(Nc1ccc(OC(F)(F)F)cc1)N1CCC2(CCCN(C(=O)c3c(F)cccc3F)C2)CC1,–
–,–,75,75,–,–,5.4,–,–,–,–,–,–,–,O=C(Nc1ccc(C(F)(F)F)cc1)N1CCOC2(CCN(C(=O)c3ccco3)CC2)C1,–
87,22.2,89,86,–,–,0.6,–,–,–,–,–,–,–,O=C(Nc1ccc(OC(F)(F)F)cc1)N1CCOC2(CCN(C(=O)c3cnoc3C3CC3)CC2)C1,–
132,> 20,90,92,–,–,0.7,–,–,–,–,–,–,–,O=C(Cc1ccccn1)N1CCC2(CC1)CN(C(=O)Nc1ccc(OC(F)(F)F)cc1)CCO2,–
602,3.3,9,9,–,–,0.125,–,–,–,–,–,–,–,O=C(Nc1ccc(OC(F)(F)F)cc1)N1CCCC2(CCN(C(=O)c3c(F)cccc3F)CC2)C1,–
